According to ChEMBL document CHEMBL3885861, “Open TG-GATES”:

Organism: Rattus norvegicus
Assay: Open TG-GATES - Regimen: Single
Format: toxicity, organism-based, Sprague-Dawley
Parameters: regimen Single, gender Male, age 6 weeks
Conditions: in vivo, po, route gavage; for Eos / Fbg / Hb / Ht / Lym / MCH / MCHC / MCV / Mono / Neu / PT / Plat / RBC / Ret / APTT / Bas / WBC: tissue Blood; for KIDNEY_L / KIDNEY_R / KIDNEY_TOTAL: tissue Kidney; for LIVER: tissue Liver; for ALP / ALT / AST / BUN / CRE / Ca / DBIL / GLC / IP / K / LDH / Na / PL / RALB / TBIL / TC / TG / TP / gamma-GTP: tissue Plasma
[1] = 50 mg/kg, 3 h, dose level Middle
[2] = 50 mg/kg, 6 h, dose level Middle
[3] = 50 mg/kg, 9 h, dose level Middle
[4] = 50 mg/kg, 24 h, dose level Middle
[5] = 150 mg/kg, 3 h, dose level High
[6] = 150 mg/kg, 6 h, dose level High
[7] = 150 mg/kg, 9 h, dose level High
[8] = 150 mg/kg, 24 h, dose level High

Oc1ncnc2[nH]ncc12 [ALLOPURINOL]
Eos [1]: 0.8% | Fbg [1]: 209.6 mg/dL | Hb [1]: 14 g/dL | Ht [1]: 41.6% | Lym [1]: 80% | MCH [1]: 21.9 pg | MCHC [1]: 33.7% | MCV [1]: 64.9 fL | Mono [1]: 8.2% | Neu [1]: 11.2% | PT [1]: 12.2 s | Plat [1]: 109.1 x10_4/uL | RBC [1]: 640.4 x10_4/ul | Ret [1]: 7.8% | KIDNEY_L [1]: 1 g | KIDNEY_R [1]: 1.1 g | KIDNEY_TOTAL [1]: 2.1 g | LIVER [1]: 9.9 g | ALP [1]: 877.8 IU/L | ALT [1]: 30.4 IU/L | AST [1]: 62.8 IU/L | BUN [1]: 15.6 mg/dL | CRE [1]: 0.6 mg/dL | Ca [1]: 11.2 mg/dL | DBIL [1]: 0.1 mg/dL | GLC [1]: 195.4 mg/dL | IP [1]: 9.9 mg/dL | K [1]: 4.6 meq/L | LDH [1]: 90.6 IU/L | Na [1]: 140 meq/L | PL [1]: 136.2 mg/dL | RALB [1]: 3.8 g/dL | TBIL [1]: 0.4 mg/dL | TC [1]: 80.4 mg/dL | TG [1]: 36.6 mg/dL | TP [1]: 5.6 g/dL | gamma-GTP [1]: 1 IU/L | TERMINAL_BW [2]: 208.2 g | APTT [2]: 16.7 s | Bas [2]: 0% | Eos [2]: 0.8% | Fbg [2]: 218.8 mg/dL | Hb [2]: 13.6 g/dL | Ht [2]: 40.6% | Lym [2]: 69% | MCH [2]: 21.4 pg | MCHC [2]: 33.5% | MCV [2]: 64 fL | Mono [2]: 9.2% | Neu [2]: 21.2% | PT [2]: 12.3 s | Plat [2]: 98.1 x10_4/uL | RBC [2]: 634 x10_4/ul | Ret [2]: 8.1% | WBC [2]: 122.8 x10_2/uL | KIDNEY_L [2]: 1.1 g | KIDNEY_R [2]: 1.2 g | KIDNEY_TOTAL [2]: 2.2 g | LIVER [2]: 9.5 g | ALP [2]: 927.4 IU/L | ALT [2]: 29.6 IU/L | AST [2]: 63.6 IU/L | BUN [2]: 15 mg/dL | CRE [2]: 0.5 mg/dL | Ca [2]: 11.6 mg/dL | DBIL [2]: 0.014 mg/dL | GLC [2]: 185 mg/dL | K [2]: 4.8 meq/L | LDH [2]: 81.2 IU/L | Na [2]: 140 meq/L | PL [2]: 130.6 mg/dL | RALB [2]: 3.7 g/dL | TBIL [2]: 0.4 mg/dL | TC [2]: 72.4 mg/dL | TG [2]: 58.8 mg/dL | TP [2]: 5.5 g/dL | gamma-GTP [2]: 1 IU/L | TERMINAL_BW [3]: 207.1 g | APTT [3]: 16.8 s | Bas [3]: 0% | Eos [3]: 1.2% | Fbg [3]: 222.6 mg/dL | Hb [3]: 13.7 g/dL | Ht [3]: 40.9% | Lym [3]: 67.2% | MCH [3]: 22 pg | MCHC [3]: 33.5% | MCV [3]: 65.9 fL | Mono [3]: 4.6% | Neu [3]: 27.4% | PT [3]: 12.5 s | Plat [3]: 108.6 x10_4/uL | RBC [3]: 622 x10_4/ul | Ret [3]: 8.9% | WBC [3]: 86.1 x10_2/uL | KIDNEY_L [3]: 1 g | KIDNEY_R [3]: 1 g | KIDNEY_TOTAL [3]: 2 g | LIVER [3]: 8.8 g | ALP [3]: 846.2 IU/L | ALT [3]: 29.4 IU/L | AST [3]: 60.2 IU/L | BUN [3]: 12.2 mg/dL | CRE [3]: 0.4 mg/dL | DBIL [3]: 0.044 mg/dL | GLC [3]: 178.4 mg/dL | IP [3]: 10.9 mg/dL | K [3]: 4.6 meq/L | LDH [3]: 80.8 IU/L | Na [3]: 139.2 meq/L | PL [3]: 147 mg/dL | RALB [3]: 3.6 g/dL | TBIL [3]: 0.4 mg/dL | TC [3]: 82.8 mg/dL | TG [3]: 30.2 mg/dL | TP [3]: 5.5 g/dL | gamma-GTP [3]: 1.4 IU/L | TERMINAL_BW [4]: 219.7 g | APTT [4]: 16.3 s | Bas [4]: 0% | Eos [4]: 1.2% | Fbg [4]: 229.6 mg/dL | Hb [4]: 13.6 g/dL | Ht [4]: 40.6% | Lym [4]: 81.2% | MCH [4]: 21.2 pg | MCHC [4]: 33.4% | MCV [4]: 63.5 fL | Mono [4]: 4.8% | Neu [4]: 13.2% | PT [4]: 12 s | Plat [4]: 98.8 x10_4/uL | RBC [4]: 641 x10_4/ul | Ret [4]: 6.9% | WBC [4]: 111.4 x10_2/uL | KIDNEY_L [4]: 1 g | KIDNEY_R [4]: 1 g | KIDNEY_TOTAL [4]: 2 g | ALP [4]: 1004.2 IU/L | ALT [4]: 32 IU/L | AST [4]: 63 IU/L | BUN [4]: 18.6 mg/dL | CRE [4]: 0.5 mg/dL | Ca [4]: 11 mg/dL | DBIL [4]: 0.022 mg/dL | GLC [4]: 183.4 mg/dL | IP [4]: 7.9 mg/dL | K [4]: 4.9 meq/L | LDH [4]: 88.4 IU/L | Na [4]: 139.2 meq/L | PL [4]: 162.4 mg/dL | RALB [4]: 3.8 g/dL | TBIL [4]: 0.3 mg/dL | TC [4]: 81.4 mg/dL | TG [4]: 120 mg/dL | TP [4]: 5.8 g/dL | gamma-GTP [4]: 1.6 IU/L | TERMINAL_BW [5]: 210.3 g | APTT [5]: 16.8 s | Bas [5]: 0% | Eos [5]: 0.8% | Fbg [5]: 220.2 mg/dL | Hb [5]: 13.9 g/dL | Ht [5]: 41.3% | Lym [5]: 75% | MCH [5]: 21.7 pg | MCHC [5]: 33.6% | MCV [5]: 64.6 fL | Mono [5]: 10% | Neu [5]: 14% | PT [5]: 12.4 s | Plat [5]: 112 x10_4/uL | RBC [5]: 640.6 x10_4/ul | Ret [5]: 8.1% | WBC [5]: 82 x10_2/uL | KIDNEY_L [5]: 1.1 g | KIDNEY_R [5]: 1.1 g | KIDNEY_TOTAL [5]: 2.2 g | LIVER [5]: 9.9 g | ALP [5]: 830.8 IU/L | ALT [5]: 34.6 IU/L | AST [5]: 63.8 IU/L | BUN [5]: 13 mg/dL | CRE [5]: 0.5 mg/dL | Ca [5]: 11.1 mg/dL | DBIL [5]: 0.046 mg/dL | GLC [5]: 191.8 mg/dL | K [5]: 4.7 meq/L | LDH [5]: 160.4 IU/L | Na [5]: 140.2 meq/L | PL [5]: 129.8 mg/dL | RALB [5]: 3.8 g/dL | TBIL [5]: 0.4 mg/dL | TC [5]: 75.8 mg/dL | TG [5]: 36.6 mg/dL | TP [5]: 5.6 g/dL | gamma-GTP [5]: 1.6 IU/L | TERMINAL_BW [6]: 208.4 g | APTT [6]: 16.2 s | Bas [6]: 0% | Eos [6]: 0.6% | Fbg [6]: 227.4 mg/dL | Hb [6]: 14.1 g/dL | Ht [6]: 42.2% | Lym [6]: 64.8% | MCH [6]: 21.8 pg | MCHC [6]: 33.5% | MCV [6]: 65.1 fL | Mono [6]: 6.6% | Neu [6]: 28% | PT [6]: 12.3 s | RBC [6]: 648.6 x10_4/ul | Ret [6]: 7.8% | WBC [6]: 115.3 x10_2/uL | KIDNEY_L [6]: 1 g | KIDNEY_R [6]: 1 g | KIDNEY_TOTAL [6]: 2.1 g | LIVER [6]: 9.5 g | ALP [6]: 1127.2 IU/L | ALT [6]: 29 IU/L | AST [6]: 61.6 IU/L | BUN [6]: 16.2 mg/dL | CRE [6]: 0.5 mg/dL | Ca [6]: 11.6 mg/dL | DBIL [6]: 0.016 mg/dL | GLC [6]: 191.6 mg/dL | K [6]: 4.9 meq/L | LDH [6]: 149 IU/L | Na [6]: 140.8 meq/L | PL [6]: 134.6 mg/dL | RALB [6]: 3.9 g/dL | TBIL [6]: 0.3 mg/dL | TC [6]: 72 mg/dL | TG [6]: 47 mg/dL | TP [6]: 5.7 g/dL | gamma-GTP [6]: 0.8 IU/L | TERMINAL_BW [7]: 205 g | APTT [7]: 16.9 s | Bas [7]: 0% | Eos [7]: 0.8% | Fbg [7]: 230.2 mg/dL | Hb [7]: 14.1 g/dL | Ht [7]: 42.1% | Lym [7]: 65.4% | MCH [7]: 21.4 pg | MCHC [7]: 33.6% | MCV [7]: 63.6 fL | Mono [7]: 5.4% | Neu [7]: 28.6% | PT [7]: 12.3 s | Plat [7]: 110.4 x10_4/uL | RBC [7]: 662.2 x10_4/ul | Ret [7]: 8.1% | WBC [7]: 82.6 x10_2/uL | KIDNEY_L [7]: 1.1 g | KIDNEY_R [7]: 1.1 g | KIDNEY_TOTAL [7]: 2.2 g | LIVER [7]: 9 g | ALP [7]: 832.2 IU/L | ALT [7]: 26 IU/L | AST [7]: 62.2 IU/L | BUN [7]: 18.8 mg/dL | CRE [7]: 0.5 mg/dL | Ca [7]: 11.1 mg/dL | DBIL [7]: 0.028 mg/dL | GLC [7]: 199.2 mg/dL | IP [7]: 11.6 mg/dL | K [7]: 4.7 meq/L | LDH [7]: 162.2 IU/L | Na [7]: 140.4 meq/L | PL [7]: 151 mg/dL | RALB [7]: 3.9 g/dL | TBIL [7]: 0.4 mg/dL | TC [7]: 80 mg/dL | TG [7]: 53 mg/dL | TP [7]: 5.9 g/dL | gamma-GTP [7]: 1.8 IU/L | TERMINAL_BW [8]: 220.7 g | APTT [8]: 16.2 s | Bas [8]: 0% | Eos [8]: 1.2% | Fbg [8]: 319.8 mg/dL | Hb [8]: 13.8 g/dL | Ht [8]: 41% | Lym [8]: 70.6% | MCH [8]: 21.9 pg | MCHC [8]: 33.6% | MCV [8]: 65.1 fL | Mono [8]: 9.8% | Neu [8]: 18.2% | PT [8]: 12.1 s | Plat [8]: 118.1 x10_4/uL | RBC [8]: 629.4 x10_4/ul | Ret [8]: 7.5% | WBC [8]: 99.2 x10_2/uL | KIDNEY_L [8]: 1.2 g | KIDNEY_R [8]: 1.3 g | KIDNEY_TOTAL [8]: 2.5 g | ALP [8]: 923.6 IU/L | ALT [8]: 28.4 IU/L | AST [8]: 61.8 IU/L | BUN [8]: 24.8 mg/dL | CRE [8]: 0.6 mg/dL | Ca [8]: 11.2 mg/dL | DBIL [8]: 0.048 mg/dL | GLC [8]: 196 mg/dL | IP [8]: 9 mg/dL | K [8]: 4.7 meq/L | LDH [8]: 157 IU/L | Na [8]: 139.8 meq/L | PL [8]: 159.6 mg/dL | RALB [8]: 3.8 g/dL | TBIL [8]: 0.3 mg/dL | TC [8]: 90.6 mg/dL | TG [8]: 87.2 mg/dL | TP [8]: 6 g/dL | gamma-GTP [8]: 2 IU/L
